Data: patent US11427553B2, “Dihydrooxadiazinones” (Bayer Aktiengesellschaft, priority 2017, dated 2022)

What was measured:
HeLa cells = test: Assay 1 cell proliferation measurement (CTG, 72 h), HeLa; format: cell-based, human; conditions: Homo sapiens, HeLa; Assay 1, 72 h, Cell Titer Glo; read-out: HeLa IC50 [nM] (Cervical cancer)
How it was run: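 Cells were plated, grown overnight at 37 °C, then treated 72 h with a 10-step 2.5-fold dilution series from 100 nM maximum final (0.3% DMSO vehicle). Viability was read by CellTiter-Glo luminescence. IC50 from a 4-parameter fit, normalised to a 0 h plate (maximum inhibition) and DMSO control (minimum inhibition).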

SK-MEL-3 cells = test: Assay 1 cell proliferation measurement (CTG, 72 h), SK-MEL-3; format: cell-based, human; conditions: Homo sapiens, SK-MEL3; Assay 1, 72 h, Cell Titer Glo; read-out: SK-MEL-3 IC50 [nM] (melanoma)
Procedure: Cell Proliferation Measurement
The antiproliferative activity of the compounds of the general formula (I) was examined in vitro in human cancer cells. For this purpose, the appropriate number of cells (Hela: 800; SK-MEL-3: 1000; A549: 800) were plated in 384-well plates with appropriate growth medium ((A549: DMEM/Ham's F12 (Biochrom; #FG 4815 with stabile Glutamine), FCS 10% final (Biochrom; #S 0415); Hela: DMEM/Ham's F12 (Biochrom; #FG 4815 with stabile Glutamine), FCS 10% final (Biochrom; #S 0415); SK-MEL-3: McCoy's 5A (Biochrom; #F 1015), FCS 10% final (Biochrom; #S 0415), L-Alanyl-L-Glutamine final: 2 mM, (Biochrom; #K 0302)) and incubated at 37° C. overnight. After 24 h, cells on one plate (0 h plate) were treated with 30 μl/cavity of CTG solution (Promega Cell Titer Glo (catalogue #G755B and G756B)) and incubated at room temperature for 10 min, and luminescence was measured by means of a VICTOR V (Perkin Elmer), in order to determine cell viability on commencement of treatment. The cells on the test plate were treated with the compounds of the general formula (I) as and incubated at 37° C. for 72 h. The compounds were added to the cells by means of an HP D300 digital dispenser in a 10-step 2.5-fold dilution series generally starting at a maximum final drug concentration of 100 nM. As control, the cells were treated with vehicle (DMSO at 0.3% final concentration). After 72 h, the cells were treated with 30 μl/cavity of CTG solution (Promega Cell Titer Glo (catalogue #G755B and G756B)) and incubated at room temperature for 10 min. and luminescence was measured by means of a VICTOR V (Perkin Elmer), in order to determine cell viability at the end of treatment. The percentage effect on cell growth and the IC50 derived therefrom were determined for each test substance using the values from the 0 h plate […] and the DMSO control […]. The IC50 values were calculated using a 4-parameter fit.

human full length PDE3A = human full length PDE3A (Homo sapiens (Human), UniProt Q14432); test: Assay 4 PDE3A enzyme inhibition (3H-cAMP SPA); format: biochemical; conditions: Sf9 cell extract
How it was run: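 Hydrolysis of [8-3H]cAMP by Sf9-expressed full-length PDE3A was measured by scintillation proximity, with enzyme diluted to keep kinetics linear and substrate consumption below 70%. Incubation ran 60 min at room temperature at pH 7.5.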

human full length PDE3B = human full length PDE3B (Homo sapiens (Human), UniProt Q13370); test: Assay 5 PDE3B enzyme inhibition (3H-cAMP SPA); format: biochemical; conditions: Sf9 cell extract
How it was run: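 Sf9 cell extract expressing human full-length PDE3B, diluted for linear kinetics (<70% substrate use), in 50 mM Tris/HCl pH 7.5, 8.3 mM MgCl2, 1.7 mM EDTA. [8-3H]cAMP substrate, 60 min at room temperature; stopped with yttrium SPA beads, scintillation counting. IC50 from sigmoidal activity vs log concentration curves.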

Sequence of human full length PDE3B (Q13370 whole entry): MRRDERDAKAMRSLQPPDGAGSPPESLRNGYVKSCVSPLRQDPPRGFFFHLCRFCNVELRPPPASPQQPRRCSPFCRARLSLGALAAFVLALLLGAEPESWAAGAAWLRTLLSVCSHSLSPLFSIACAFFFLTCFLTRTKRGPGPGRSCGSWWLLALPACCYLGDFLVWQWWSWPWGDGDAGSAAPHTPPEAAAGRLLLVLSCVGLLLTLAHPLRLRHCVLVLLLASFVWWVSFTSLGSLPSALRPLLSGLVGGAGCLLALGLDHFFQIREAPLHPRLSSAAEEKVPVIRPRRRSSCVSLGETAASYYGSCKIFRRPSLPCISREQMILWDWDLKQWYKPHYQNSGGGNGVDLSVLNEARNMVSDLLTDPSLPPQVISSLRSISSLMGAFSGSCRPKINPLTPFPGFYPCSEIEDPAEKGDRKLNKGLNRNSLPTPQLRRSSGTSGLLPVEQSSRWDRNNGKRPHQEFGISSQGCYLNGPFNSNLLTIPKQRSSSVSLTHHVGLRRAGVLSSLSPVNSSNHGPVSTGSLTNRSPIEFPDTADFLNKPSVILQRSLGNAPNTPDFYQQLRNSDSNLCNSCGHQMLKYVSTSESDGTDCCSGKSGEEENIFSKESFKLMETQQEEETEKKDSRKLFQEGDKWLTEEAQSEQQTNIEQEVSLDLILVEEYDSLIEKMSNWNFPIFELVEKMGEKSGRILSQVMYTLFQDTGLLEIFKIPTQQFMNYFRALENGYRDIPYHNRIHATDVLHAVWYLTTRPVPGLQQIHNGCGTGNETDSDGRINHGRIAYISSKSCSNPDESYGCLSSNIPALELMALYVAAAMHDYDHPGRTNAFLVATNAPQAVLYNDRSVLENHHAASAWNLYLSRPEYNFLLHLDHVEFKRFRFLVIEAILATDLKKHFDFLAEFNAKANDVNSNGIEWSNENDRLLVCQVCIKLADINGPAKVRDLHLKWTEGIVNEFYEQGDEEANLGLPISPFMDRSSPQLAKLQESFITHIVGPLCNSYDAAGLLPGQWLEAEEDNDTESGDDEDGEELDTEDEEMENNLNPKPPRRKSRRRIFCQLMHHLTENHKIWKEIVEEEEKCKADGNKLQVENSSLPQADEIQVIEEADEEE
Sequence of human full length PDE3A (Q14432 whole entry): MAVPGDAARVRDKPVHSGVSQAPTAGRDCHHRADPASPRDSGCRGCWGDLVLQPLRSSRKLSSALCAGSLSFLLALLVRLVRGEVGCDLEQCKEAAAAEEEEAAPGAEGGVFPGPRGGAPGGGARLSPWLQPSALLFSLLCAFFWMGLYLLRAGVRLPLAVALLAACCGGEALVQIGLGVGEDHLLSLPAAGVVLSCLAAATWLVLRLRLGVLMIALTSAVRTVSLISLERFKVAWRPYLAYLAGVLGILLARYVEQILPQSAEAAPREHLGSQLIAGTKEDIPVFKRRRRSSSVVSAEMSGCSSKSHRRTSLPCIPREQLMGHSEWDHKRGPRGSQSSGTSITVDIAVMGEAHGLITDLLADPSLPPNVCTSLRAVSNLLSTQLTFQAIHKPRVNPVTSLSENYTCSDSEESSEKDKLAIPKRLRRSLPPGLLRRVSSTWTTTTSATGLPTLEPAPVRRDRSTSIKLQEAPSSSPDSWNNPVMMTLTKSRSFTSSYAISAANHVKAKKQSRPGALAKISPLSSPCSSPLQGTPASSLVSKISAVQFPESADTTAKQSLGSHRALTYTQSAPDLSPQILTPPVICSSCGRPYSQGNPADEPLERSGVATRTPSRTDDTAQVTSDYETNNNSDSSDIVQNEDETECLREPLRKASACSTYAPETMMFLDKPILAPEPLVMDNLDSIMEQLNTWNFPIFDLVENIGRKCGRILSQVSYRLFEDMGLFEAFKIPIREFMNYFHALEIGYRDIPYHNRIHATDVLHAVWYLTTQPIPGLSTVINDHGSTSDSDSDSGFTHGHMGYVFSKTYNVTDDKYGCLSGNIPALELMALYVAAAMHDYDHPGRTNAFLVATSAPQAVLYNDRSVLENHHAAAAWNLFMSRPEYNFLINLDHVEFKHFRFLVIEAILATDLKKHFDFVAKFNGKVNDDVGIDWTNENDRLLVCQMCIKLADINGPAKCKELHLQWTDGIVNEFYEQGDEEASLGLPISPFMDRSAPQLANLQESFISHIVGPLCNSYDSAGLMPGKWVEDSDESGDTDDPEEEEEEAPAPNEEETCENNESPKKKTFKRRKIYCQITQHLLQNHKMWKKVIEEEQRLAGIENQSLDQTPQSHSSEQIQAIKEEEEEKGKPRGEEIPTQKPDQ

SMILES	IC50 (HeLa cells) [nM]	IC50 (SK-MEL-3 cells) [nM]	IC50 (human full length PDE3A) [nM]	IC50 (human full length PDE3B) [nM]
CCn1cc(-c2ccc(C3=NNC(=O)OC3)cc2C(F)(F)F)cn1 [Example 131, 5-[4-(1-Ethyl-1H-pyrazol-4-yl)-3-(trifluoromethyl)phenyl]-3,6-dihydro-2H-1,3,4-oxadiazin-2-one]	2	6	32	42
CC(C)n1cc(-c2ccc(C3=NNC(=O)OC3)cc2C(F)F)cn1 [Example 263, 5-{3-(Difluoromethyl)-4-[1-(propan-2-yl)-1H-pyrazol-4-yl]phenyl}-3,6-dihydro-2H-1,3,4-oxadiazin-2-one]	9	32	50	46
Nc1cccc(-c2ccc(C3=NNC(=O)OC3)cc2F)c1 [Example 91, 5-[4-(3-Aminophenyl)-3-fluoro-phenyl]-3,6-dihydro-1,3,4-oxadiazin-2-one]	14	17	68	85
O=C1NN=C(c2ccc(CN3CCOCC3)c(C(F)(F)F)c2)CO1 [Example 197, 5-{4-[(Morpholin-4-yl)methyl]-3-(trifluoromethyl)phenyl}-3,6-dihydro-2H-1,3,4-oxadiazin-2-one]	5	10	650	803
O=C1NN=C(c2ccc(NC3CC(O)C3)c(C(F)(F)F)c2)CO1 (mixture of isomers) [Example 206, (cis/trans)-5-[4-{[3-hydroxycyclobutyl]amino}-3-(trifluoromethyl)phenyl]-3,6-dihydro-2H-1,3,4-oxadiazin-2-one]	0.5	1	15	20
C[C@@H]1OC(=O)NN=C1c1ccc(-c2cccc(N)c2)c(C(F)(F)F)c1 [Example 176, (6S)-5-[3′-Amino-2-(trifluoromethyl)[1,1′-biphenyl]-4-yl]-6-methyl-3,6-dihydro-2H-1,3,4-oxadiazin-2-one]	2	4	37	35
O=C1NN=C(c2ccc(-c3ccc(F)cn3)c(C(F)(F)F)c2)CO1 [Example 158, 5-[4-(5-Fluoropyridin-2-yl)-3-(trifluoromethyl)phenyl]-3,6-dihydro-2H-1,3,4-oxadiazin-2-one]	22	40	500	720
CC(C)(O)CCNc1ccc(C2=NNC(=O)OC2)cc1C(F)(F)F [Example 319, 5-{4-[(3-hydroxy-3-methylbutyl)amino]-3-(trifluoromethyl)phenyl}-3,6-dihydro-2H-1,3,4-oxadiazin-2-one]	61	> 100	70	180
O=C1NN=C(c2ccc(NCC3CC3)c(C(F)(F)F)c2)CO1 [Example 212, 5-{4-[(Cyclopropylmethyl)amino]-3-(trifluoromethyl)phenyl}-3,6-dihydro-2H-1,3,4-oxadiazin-2-one]	1	2	26	24
O=C1NN=C(c2ccc(-c3ccc(O)cc3)c(F)c2)CO1 [Example 105, 5-(2-Fluoro-4′-hydroxy[1,1′-biphenyl]-4-yl)-3,6-dihydro-2H-1,3,4-oxadiazin-2-one]	8	15	48	100
O=C1NN=C(c2ccc(-c3cc4ccccc4s3)c(C(F)(F)F)c2)CO1 [Example 148, 5-[4-(1-Benzothiophen-2-yl)-3-(trifluoromethyl)phenyl]-3,6-dihydro-2H-1,3,4-oxadiazin-2-one]	53	> 100	190	210
O=C1NN=C(c2cc(F)c(N3CCOCC3)c(F)c2)CO1 [Example 21, 5-[3,5-Difluoro-4-(morpholin-4-yl)phenyl]-3,6-dihydro-2H-1,3,4-oxadiazin-2-one]	15	> 67	175	185

The remaining lines, values ahead:

IC50 (HeLa cells) [nM]	IC50 (SK-MEL-3 cells) [nM]	IC50 (human full length PDE3A) [nM]	IC50 (human full length PDE3B) [nM]	SMILES
48	> 100	65	30	Cc1nn(C)cc1-c1ccc(C2=NNC(=O)OC2)cc1C(F)(F)F [Example 52, 5-[4-(1,3-Dimethyl-1H-pyrazol-4-yl)-3-(trifluoromethyl)phenyl]-3,6-dihydro-2H-1,3,4-oxadiazin-2-one]
> 100	> 100	11	16	Cc1n[nH]c2cc(-c3ccc(C4=NNC(=O)OC4)cc3C(F)(F)F)ccc12 [Example 327, 5-[4-(3-methyl-1H-indazol-6-yl)-3-(trifluoromethyl)phenyl]-3,6-dihydro-2H-1,3,4-oxadiazin-2-one]
> 100	> 100	6	7	CC(C)(C)OC(=O)NCCNc1ccc(C2=NNC(=O)OC2)cc1C(F)(F)F [Intermediate 67, tert-Butyl {2-[4-(2-oxo-3,6-dihydro-2H-1,3,4-oxadiazin-5-yl)-2-(trifluoromethyl)anilino]ethyl} carbamate]
5	8	100	120	O=C1NN=C(c2ccc(-c3cc(F)c(F)cc3F)c(F)c2)CO1 [Example 98, 5-(2,2′,4′,5′-Tetrafluoro[1,1′-biphenyl]-4-yl)-3,6-dihydro-2H-1,3,4-oxadiazin-2-one]
7	13	50	100	O=C1NN=C(c2ccc(-c3ccncc3)c(F)c2)CO1 [Example 93, 5-[3-Fluoro-4-(pyridin-4-yl)phenyl]-3,6-dihydro-2H-1,3,4-oxadiazin-2-one]
16	30	43	100	Nc1cc(-c2ccc(C3=NNC(=O)OC3)cc2F)ccn1 [Example 90, 5-[4-(2-Aminopyridin-4-yl)-3-fluorophenyl]-3,6-dihydro-2H-1,3,4-oxadiazin-2-one]
22	38	90	100	COc1ccc(-c2ccc(C3=NNC(=O)O[C@H]3C)cc2C(F)(F)F)cc1 [Example 188, (6S)-5-[4′-Methoxy-2-(trifluoromethyl)[1,1′-biphenyl]-4-yl]-6-methyl-3,6-dihydro-2H-1,3,4-oxadiazin-2-one]
> 100	> 100	56	150	Cc1nc2cc(-c3ccc(C4=NNC(=O)OC4)cc3C(F)(F)F)ccc2s1 [Example 325, 5-[4-(2-methyl-1,3-benzothiazol-5-yl)-3-(trifluoromethyl)phenyl]-3,6-dihydro-2H-1,3,4-oxadiazin-2-one]
8	20	140	180	O=C1NN=C(c2ccc(Br)c(C(F)(F)F)c2)CO1 [Intermediate 78, 5-[4-bromo-3-(trifluoromethyl)phenyl]-3,6-dihydro-2H-1,3,4-oxadiazin-2-one]
1	1	76	120	COCCNc1ccc(C2=NNC(=O)OC2)cc1C(F)(F)F [Example 222, 5-{4-[(2-Methoxyethyl)amino]-3-(trifluoromethyl)phenyl}-3,6-dihydro-2H-1,3,4-oxadiazin-2-one]
> 100	25600	200	160	O=C1NN=C(c2ccc(-c3c[nH]nc3C(F)(F)F)c(C(F)(F)F)c2)CO1 [Example 130, 5-{3-(Trifluoromethyl)-4-[3-(trifluoromethyl)-1H-pyrazol-4-yl]phenyl}-3,6-dihydro-2H-1,3,4-oxadiazin-2-one]
4	9	130	270	Cc1ccccc1-c1ccc(C2=NNC(=O)OC2)cc1F [Example 81, 5-(2-Fluoro-2′-methylbiphenyl-4-yl)-3,6-dihydro-2H-1,3,4-oxadiazin-2-one]
